Test results published in the supplement of paper PMC10307832.

How the values were obtained:
Experiment in all cases: relative viability (nuclei count vs DMSO), 5 days (fraction); higher = more cells survive
ChaGo-K-1 = system: ChaGo-K-1
In short: (§1)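 Medians of duplicate plates are given as relative viability. That measure is the nuclei count in treated wells divided by the count in vehicle wells. Counts were taken on 4× images of lung cancer cell lines in 1536-well plates, 5 days after pin-tool dosing the day after seeding with one drug alone or a fixed anchor-drug dose plus five library-drug doses (not always all listed) in √10 steps.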

EMC-BAC-2 = system: EMC-BAC-2
In short: as §1

EPLC-272H = system: EPLC-272H
In short: as §1

H3255 = system: H3255
In short: as §1

HCC-44 = system: HCC-44
In short: as §1

HCC-827 = system: HCC-827
In short: as §1

LCLC-103H = system: LCLC-103H
In short: as §1

LCLC-97TM1 = system: LCLC-97TM1
In short: as §1

NCI-H1355 = system: NCI-H1355
In short: as §1

NCI-H1395 = system: NCI-H1395
In short: as §1

NCI-H1651 = system: NCI-H1651
In short: as §1

NCI-H1793 = system: NCI-H1793
In short: as §1

NCI-H1944 = system: NCI-H1944
In short: as §1

NCI-H2023 = system: NCI-H2023
In short: as §1

NCI-H2085 = system: NCI-H2085
In short: as §1

NCI-H2087 = system: NCI-H2087
In short: as §1

NCI-H2405 = system: NCI-H2405
In short: as §1

NCI-H322M = system: NCI-H322M
In short: as §1

NCI-H520 = system: NCI-H520
In short: as §1

NCI-H650 = system: NCI-H650
In short: as §1

SK-MES-1 = system: SK-MES-1
In short: as §1

UMC-11 = system: UMC-11
In short: as §1

Compound: O=C(O)c1ccc(-c2c[nH]c3ncc(-c4ccccc4)cc23)cc1C1CCCC1 + O=C(CCCCCCC(=O)Nc1ccccc1)NO [Vorinostat] (partner 1 µM)
- relative viability (ChaGo-K-1; first compound 0.04 µM): 0.739
- relative viability (ChaGo-K-1; first compound 0.1265 µM): 0.786
- relative viability (ChaGo-K-1; first compound 0.4 µM): 0.772
- relative viability (ChaGo-K-1; first compound 1.265 µM): 0.686
- relative viability (EMC-BAC-2; first compound 0.04 µM): 0.421
- relative viability (EMC-BAC-2; first compound 0.1265 µM): 0.575
- relative viability (EMC-BAC-2; first compound 0.4 µM): 0.449
- relative viability (EMC-BAC-2; first compound 1.265 µM): 0.391
- relative viability (EPLC-272H; first compound 0.04 µM): 0.503
- relative viability (EPLC-272H; first compound 0.1265 µM): 0.654
- relative viability (EPLC-272H; first compound 0.4 µM): 0.483
- relative viability (EPLC-272H; first compound 1.265 µM): 0.261
- relative viability (H3255; first compound 0.04 µM): 0.872
- relative viability (H3255; first compound 0.1265 µM): 0.795
- relative viability (H3255; first compound 0.4 µM): 0.83
- relative viability (H3255; first compound 1.265 µM): 0.791
- relative viability (HCC-44; first compound 0.04 µM): 1.04
- relative viability (HCC-44; first compound 0.1265 µM): 1.06
- relative viability (HCC-44; first compound 0.4 µM): 1.02
- relative viability (HCC-44; first compound 1.265 µM): 0.971
- relative viability (HCC-827; first compound 0.04 µM): 0.372
- relative viability (HCC-827; first compound 0.1265 µM): 0.913
- relative viability (HCC-827; first compound 0.4 µM): 0.815
- relative viability (HCC-827; first compound 1.265 µM): 0.75
- relative viability (LCLC-103H; first compound 0.04 µM): 0.777
- relative viability (LCLC-103H; first compound 0.1265 µM): 0.758
- relative viability (LCLC-103H; first compound 0.4 µM): 0.779
- relative viability (LCLC-103H; first compound 1.265 µM): 0.76
- relative viability (LCLC-97TM1; first compound 0.04 µM): 0.876
- relative viability (LCLC-97TM1; first compound 0.1265 µM): 0.94
- relative viability (LCLC-97TM1; first compound 0.4 µM): 0.747
- relative viability (LCLC-97TM1; first compound 1.265 µM): 0.525
- relative viability (NCI-H1355; first compound 0.04 µM): 0.647
- relative viability (NCI-H1355; first compound 0.1265 µM): 0.753
- relative viability (NCI-H1355; first compound 0.4 µM): 0.694
- relative viability (NCI-H1355; first compound 1.265 µM): 0.615
- relative viability (NCI-H1395; first compound 0.04 µM): 0.7
- relative viability (NCI-H1395; first compound 0.1265 µM): 0.67
- relative viability (NCI-H1395; first compound 0.4 µM): 0.672
- relative viability (NCI-H1395; first compound 1.265 µM): 0.683
- relative viability (NCI-H1651; first compound 0.04 µM): 0.349
- relative viability (NCI-H1651; first compound 0.1265 µM): 0.596
- relative viability (NCI-H1651; first compound 0.4 µM): 0.62
- relative viability (NCI-H1651; first compound 1.265 µM): 0.462
- relative viability (NCI-H1793; first compound 0.04 µM): 0.835
- relative viability (NCI-H1793; first compound 0.1265 µM): 1.16
- relative viability (NCI-H1793; first compound 0.4 µM): 0.84
- relative viability (NCI-H1793; first compound 1.265 µM): 0.744
- relative viability (NCI-H1944; first compound 0.04 µM): 0.53
- relative viability (NCI-H1944; first compound 0.1265 µM): 0.573
- relative viability (NCI-H1944; first compound 0.4 µM): 0.582
- relative viability (NCI-H1944; first compound 1.265 µM): 0.465
- relative viability (NCI-H2023; first compound 0.04 µM): 0.825
- relative viability (NCI-H2023; first compound 0.1265 µM): 0.967
- relative viability (NCI-H2023; first compound 0.4 µM): 0.523
- relative viability (NCI-H2023; first compound 1.265 µM): 0.507
- relative viability (NCI-H2085; first compound 0.04 µM): 0.793
- relative viability (NCI-H2085; first compound 0.1265 µM): 0.857
- relative viability (NCI-H2085; first compound 0.4 µM): 0.779
- relative viability (NCI-H2085; first compound 1.265 µM): 0.642
- relative viability (NCI-H2087; first compound 0.04 µM): 0.916
- relative viability (NCI-H2087; first compound 0.1265 µM): 0.924
- relative viability (NCI-H2087; first compound 0.4 µM): 0.611
- relative viability (NCI-H2087; first compound 1.265 µM): 0.465
- relative viability (NCI-H2405; first compound 0.04 µM): 1.02
- relative viability (NCI-H2405; first compound 0.1265 µM): 1.12
- relative viability (NCI-H2405; first compound 0.4 µM): 0.944
- relative viability (NCI-H2405; first compound 1.265 µM): 0.668
- relative viability (NCI-H322M; first compound 0.04 µM): 0.909
- relative viability (NCI-H322M; first compound 0.1265 µM): 0.858
- relative viability (NCI-H322M; first compound 0.4 µM): 0.898
- relative viability (NCI-H322M; first compound 1.265 µM): 0.855
- relative viability (NCI-H520; first compound 0.04 µM): 0.643
- relative viability (NCI-H520; first compound 0.1265 µM): 0.816
- relative viability (NCI-H520; first compound 0.4 µM): 0.71
- relative viability (NCI-H520; first compound 1.265 µM): 0.484
- relative viability (NCI-H650; first compound 0.04 µM): 0.48
- relative viability (NCI-H650; first compound 0.1265 µM): 0.394
- relative viability (NCI-H650; first compound 0.4 µM): 0.413
- relative viability (NCI-H650; first compound 1.265 µM): 0.22
- relative viability (SK-MES-1; first compound 0.04 µM): 1.13
- relative viability (SK-MES-1; first compound 0.1265 µM): 1.19
- relative viability (SK-MES-1; first compound 0.4 µM): 1.27
- relative viability (SK-MES-1; first compound 1.265 µM): 0.876
- relative viability (UMC-11; first compound 0.04 µM): 0.419
- relative viability (UMC-11; first compound 0.1265 µM): 0.321
- relative viability (UMC-11; first compound 0.4 µM): 0.347
- relative viability (UMC-11; first compound 1.265 µM): 0.219
